Assay results taken from patent US20160274087A1, “SCREENING ASSAY FOR AGENTS THAT INFLUENCE BETA CELL NUMBER AND/OR PHENOTYPE” (VRIJE UNIVERSITEIT BRUSSEL, priority 2013, published 2016).

Key:
rat beta cells [1] = assay: Beta cell DNA synthesis/proliferation by EdU (and BrdU) incorporation, incl. LOPAC screen; type: cell-based
Experimental: On day 1, 9 and 15 of culture, total numbers of living beta cells per well were determined by semi-automatic cell count, after Hoechst 33342 (Ho) and propidium iodide (PI) staining. Numbers of living beta cells were obtained by subtracting the PI-positive cell numbers from the Ho-positive cell numbers, and correcting for the percent insulin-negative cells, as determined following insulin-immunofluorescence staining. They were expressed as percent of the numbers on day 1. Each condition was also evaluated for increases in the percentage of proliferating beta cells (incorporating the thymidine-analogue 5-ethynyl-2′-deoxyuridine, EdU; 100 μmol/l). To detect beta cells that underwent two successive cycles, cells were sequentially exposed to two different thymidine-analogs, first EdU from day 3 to 6, and then BrdU (100 μmol/l) from day 7 to 10, with a 24-hour label-free period in between. EdU-positive (EdU^+) nuclei were detected with the Click-iT Assay kit (Invitrogen), while BrdU-positive (BrdU^+) nuclei were identified with anti-BrdU antibody.
Freshly purified beta cells were cultured in control medium for 24 h prior to the addition of the LOPAC test compounds (day 1). The culture medium was refreshed on day 3 and the cells were then cultured further with 5-ethynyl-2′-deoxyuridine (EdU; 10 μM) up to day 6. Cell viability and percentage EdU incorporation were quantified after imaging and image analysis using the BD Pathway Bioimager, as described before (Assefa et al., 2014). To test the significance of compound effect on beta cell proliferation, average Z-score for each compound was calculated and a cut-off for potential positive hits was set at a Z-score of greater than three standard deviations. Thus, a compound is considered a hit only if it increases the percent EdU incorporation to above three standard deviation of the plate-averaged percent EdU incorporation.
Sorted beta cells were seeded in 384-well or 6-well plates coated with 804G matrix, and kept in culture for up to 15 days at 37° C. 5% CO2 using Ham F10 supplemented with 1 mM L-glutamine, 0.1 mg/ml streptomycin, 0.075 mg/ml penicillin, 50 μM of isobutyl-1-methylxanthine (IBMX) at 10 mM D-glucose with and without synthetic GCs (6 methyl-prednisolone (6MP), dexamethasone (DEX), GR-modulators (compound A (CPA), mifepristone (MIF), and NFκB inhibitors (JSH-23 en Bay11-7085). Total cell number and beta cell viability was evaluated after incubation with Hoechst 33342 and propidium iodide. All chemicals were from Sigma Life Sciences or Merck. Quantification of cell numbers and analysis of beta-cell viability was done using the Pathway Bioimager (BD Biosciences) and using IPlab and Attovision software for background subtraction as described prior (Assefa et al., 2014). Replicating beta cells were quantified after 24 or 72 hrs incubation with 5-ethynyl-2′-deoxyuridine (EdU, a thymidine analog) using the ClickIT EDU Alexa Fluor assay (Invitrogen). EdU-positive cells were expressed as percentage of total cell number.

rat beta cells [2] = assay: Glucose utilization and oxidation by isolated beta cells; type: cell-based; conditions: 6-day HC treatment
Experimental: FIG. 9: Glucose utilization and oxidation by isolated beta cells after treatment with HC. Purified rat beta cells were cultured for six days in control medium (white squares) or with HC (black triangles) at 10 mM glucose. Glucose utilization (A) was determined by the rate of D-(5-^3H)glucose conversion into ^3H2O and glucose oxidation (B) by that of D-(U-^14C)glucose into ^14CO2 during a 2 h incubation period at the indicated concentrations of glucose without HC. Values represent means±SEM, n=6; *, p<0.05 versus control.
Because GC signaling controls metabolic processes including glucose metabolism and we have previously reported that glucose regulates rat beta cell numbers through effects on beta cell survival and proliferation (Assefa et al., 2014)(Example 1), we investigated whether HC-induced beta cell proliferation is associated with a change in glucose metabolism. First, the metabolic effect of a 6-day treatment with HC was analyzed by 2 h glucose utilization and oxidation rates at different glucose concentrations. […] Further, HC treatment doubles the rates of both utilization and oxidation at 10 mM glucose as compared to those in control cells (p<0.05).

alpha cells = assay: Alpha cell numbers in cultured dissociated rat islet cells; type: cell-based; conditions: HC-containing medium; control 40±3%
From the text: We next tested cell type-specificity of HC-induced proliferation by using dissociated rat islet cells containing 15-20% alpha cells and 10-15% other cell types. […] Non-endocrine pancreatic cells were virtually undetectable on day 15, presumably died out due to the serum-free culture conditions.

[3] = target: T1, glucocorticoid receptor (GR) (Homo sapiens, UniProt P04150); conditions: cited from earlier work
T1 sequence (P04150 1-777): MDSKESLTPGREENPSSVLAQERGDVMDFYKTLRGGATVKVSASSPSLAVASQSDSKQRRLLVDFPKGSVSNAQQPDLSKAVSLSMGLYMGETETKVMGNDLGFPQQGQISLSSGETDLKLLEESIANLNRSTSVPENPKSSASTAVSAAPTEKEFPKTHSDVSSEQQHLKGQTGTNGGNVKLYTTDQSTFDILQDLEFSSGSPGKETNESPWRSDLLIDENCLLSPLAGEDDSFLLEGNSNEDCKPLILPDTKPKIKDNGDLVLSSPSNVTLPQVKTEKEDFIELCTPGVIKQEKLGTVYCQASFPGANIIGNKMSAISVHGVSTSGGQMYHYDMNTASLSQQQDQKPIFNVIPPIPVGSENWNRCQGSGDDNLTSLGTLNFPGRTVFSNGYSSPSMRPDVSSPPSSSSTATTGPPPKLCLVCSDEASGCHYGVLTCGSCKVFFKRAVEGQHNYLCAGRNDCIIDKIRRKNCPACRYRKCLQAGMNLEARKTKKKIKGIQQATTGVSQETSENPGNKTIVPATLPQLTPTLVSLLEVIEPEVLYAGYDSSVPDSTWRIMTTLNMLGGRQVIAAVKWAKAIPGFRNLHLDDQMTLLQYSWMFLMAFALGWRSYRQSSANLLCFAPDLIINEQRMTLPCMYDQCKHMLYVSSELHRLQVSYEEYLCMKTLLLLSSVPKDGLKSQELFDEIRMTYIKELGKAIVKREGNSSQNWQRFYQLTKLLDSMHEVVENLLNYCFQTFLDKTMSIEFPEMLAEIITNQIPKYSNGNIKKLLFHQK

Question: For C[C@]12CCC(=O)C=C1CC[C@@H]1[C@@H]2[C@@H](O)C[C@@]2(C)[C@H]1CC[C@]2(O)C(=O)CO [Hydrocortisone, hydrocortisone], which “Percent EdU+ cells” value (rat beta cells [1]; LOPAC screen at 1 μM, adult rat beta cells, EdU day 3 to 6, control medium 5.6) is on record?
Answer: 28.0%

Question: What about the Z-Score (rat beta cells [1]; LOPAC screen at 1 μM, adult rat beta cells, EdU day 3 to 6, hit cut-off three standard deviations) of the same compound?
Answer: 5.4

Question: And the “final concentration of optimal potency (dose-response studies)” value (rat beta cells [1]; survival and proliferation of rat beta cells, data not shown)?
Answer: 1 µM

Question: And the “rates of glucose utilization and oxidation compared to control cells” value (rat beta cells [2]; 10 mM glucose)?
Answer: doubles

Question: What about the “increase of glucose utilization and oxidation over control cells” value (rat beta cells [2]; 20 mM glucose) of the same compound?
Answer: 50%

Question: What about the “alpha cell numbers after 15-day culture (% of the starting level)” value (alpha cells) of the same compound?
Answer: 57±1%

Question: And the “Relative Potencies GR” value [3]?
Answer: 1
